Measured values reported in US9511047B2, “Delphinidin for combating melanoma cells” (priority 2012, dated 2016).

Assays:
[1] = Stability trials in aqueous solution, 0.9% NaCl, 37° C. (Example 5); format: physicochemical; settings: 0.9% NaCl solution, dark
Procedure: To determine the delphinidin chloride content in the delphinidin-containing solutions, a reversed-phase HPLC method was used similar to the one already described above. The following reagents were used in this case: […] The solutions were prepared at room temperature and subsequently stored in the dark at 37° C. in closed vials. […] The table below gives the content determined as a percentage of the starting concentration stated above.

[2] = test system: human dermal microvascular endothelial cells; assay: Cell vitality, ATP luminescence assay, endothelial cells (Example 12); format: cell-based; settings: 0.1-100 μM (0.1; 3.2; 100 μM); Day 1-Day 4 (FIG. 18)
Description: The human dermal microvascular endothelial cells were obtained by the standard method known to those skilled in the art of Hewett and Murray (1993) [Hewett P. W. and Murray J. C. (1993) Immunomagnetic purification of human microvessel endothelial cells using Dynabeads coated monoclonal antibodies to PECAM-1. Eur J Cell Biol 62: 451-454; Hewett P. W. & Murray J. C. (1993) Human microvessel endothelial cells: Isolation, culture and characterization. In Vitro Cell Biol: 823-830].

[3] = test system: human melanoma cell line A-375; assay: Induction of apoptosis, sub-G1 peak method (Examples 6 and 9); format: cell-based; settings: A-375, 24 hours; for Induction of apoptosis (sub-G1 peak): 10-3000 μg/ml delphinidin-SBE-β-CD or 15-120 μM delphinidin Cl, low and higher cell confluence (FIGS. 2a, 2b)
[4] = Solubility of delphinidin chloride in aqueous cyclodextrin solutions (Example 1); format: physicochemical; settings: pure water, cyclodextrin concentration 0; stirred 30° C. 20 h in the dark, filtered 0.22 μm
A-375 cells [5] = assay: Microscopic analysis of cell morphology after 24 hours of treatment; settings: A-375, 24 hours of treatment, high concentrations (FIG. 4)
A-375 cells [6] = assay: Real-time cell analysis of cell number and proliferation, xCELLigence system (Examples 8 and 11); format: cell-based, human
[7] = test system: human melanoma cell line A-375; assay: Cell viability test, WST-1 assay (Examples 7 and 10); format: cell-based; settings: A-375, 24 hours; for Cell viability (WST-1 assay): 10-3000 μg/ml delphinidin-SBE-β-CD or 15-120 μM delphinidin Cl, low and higher cell confluence (FIGS. 3a, 3b)

Oc1cc(O)c2cc(O)c(-c3cc(O)c(O)c(O)c3)[o+]c2c1.[Cl-] [delphinidin Cl, delphinidin chloride]
Delphinidin content as a percentage of the starting concentration ([1]; 0 h, start 1.584 mg/ml (complex) or 0.0216 mg/ml (delphinidin)): 100%
Delphinidin content as a percentage of the starting concentration ([1]; 1 h): 8.3%
Delphinidin content as a percentage of the starting concentration ([1]; 2 h): 6.5%
Delphinidin content as a percentage of the starting concentration ([1]; 3 h): 5.6%
Delphinidin content as a percentage of the starting concentration ([1]; 4 h): 5.1%
Cytotoxic effects on endothelial cells (vitality) [2]: no significant cytotoxic effects
Induction of apoptosis (sub-G1 peak) [3]: significant dose-dependent induction of apoptosis
Delphinidin chloride, solubility achievable [4]: 70 µg/mL
Morphology of the cells under microscopic analysis (A-375 cells [5]): become globular and/or detached
Concentration at which similarly strong antiproliferative effects are seen (A-375 cells [6]; A-375, high and low cell confluence (FIGS. 7 and 8)): 60 to 120 µM
Cell viability (WST-1 assay) [7]: loss of vital cells with increasing dose

sulfobutyl ether β-cyclodextrin [SBE-β-CD]
Induction of apoptosis (sub-G1 peak) [3]: no effect
Induction of apoptosis (sub-G1 peak), Example 9 ([3]; complex partner as control (FIG. 11b)): at control level
Intensification of TRAIL sensitivity (real-time cell monitoring) (A-375 cells [6]; A-375, high cell confluence, SBE-β-CD 30 or 1000 μg/ml with TRAIL 0.02 μg/ml (FIGS. 16 and 17)): No intensification of TRAIL sensitivity
Cell viability (WST-1 assay) [7]: no effect
Cell vitality, Example 10 ([7]; complex partner as control (FIG. 12b)): at control level
